Data taken from patent US4705803A, “Method of improving resorption of injected antibacterially active substances or combinations” (Boehringer Ingelheim Vetmedica GmbH, priority 1982, dated 1987).

Columns and labels:
physchem = conditions: water
[1] = system: respiratory tract secretion; conditions: cited from earlier work; for concentration of solids in the fluid of the respiratory tract / quantity of secretion / viscosity of the secretion: human and veterinary medicine; for specific weight: solids/fluid of the respiratory tract
[2] = acute toxicity (LD50) in the mouse; conditions: in vivo, ip
Source text: For example, the acute toxicity (LD50) in the mouse is […]

[3] = maximum solubility in water

| SMILES | solubility (physchem) [µg/mL] | concentration of solids in the fluid of the respiratory tract [1] | quantity of secretion [1] | viscosity of the secretion [1] | specific weight [1] | LD50 [2] [mg/kg] | solubility [3] [µg/mL] |
| --- | --- | --- | --- | --- | --- | --- | --- |
| Cl.Nc1c(Br)cc(Br)cc1CN[C@H]1CC[C@H](O)CC1 [Compound B, N-(2-amino,3,5-dibromo-benzyl)-trans-4-hydroxy-cyclohexylamine hydrochloride] | 16600 | reduction | significant increase | decrease | reduction | 268 | – |
| Cl.Oc1c(Br)cc(Br)cc1CN[C@H]1CC[C@H](O)CC1 [Compound C, N-(3,5-dibromo-2-hydroxy-benzyl)-trans-4-hydroxycyclohexylamine hydrochloride] | – | – | – | – | – | > 800 | 100 to 1000 |
| CN(Cc1cc(Br)cc(Br)c1N)C1CCCCC1.Cl [Compound A, N-(2-amino-3,5-dibromo-benzyl)-N-methyl-cyclohexylamine hydrochloride] | 200 to 5000 | reduction | significant increase | decrease | reduction | > 400 | – |
